This is an account of results in article PMC10714399, “Open Source Antibiotics: Simple Diarylimidazoles Are Potent against Methicillin-Resistant Staphylococcus aureus” (ACS Infectious Diseases, 2023).

The structures appear in SMILES notation. ≈ marks a conversion by molar mass, not a printed value. Where “and” joins values, the source holds several entries; their conditions need not be identical. Equal values may be shown once. Read-outs that look alike come from different tables or passages of the source.

One series is described as follows: Aqueous solubility. The series is classed as physicochemical. The following applies: for solubility: thermodynamic from solid.
Series [1] can be described thus: Human plasma protein binding (PPB). The series is classed as in vitro ADME. The following applies: human, plasma.
Series [2] can be described thus: Human liver microsome intrinsic clearance. It is filed as in vitro ADME.
The nature of series [3]: Rat hepatocyte intrinsic clearance. The series is classed as in vitro ADME.
Series [4] has as its system S. aureus ATCC 25923 (methicillin-susceptible). The series is described as follows: In vitro antibacterial activity, MIC (UCL), MSSA. It is filed as cell-based, Staphylococcus aureus. The following applies: for MIC: Staphylococcus aureus. The procedure, abridged: (§1)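 Broth microdilution in isosensitest broth; inoculum from overnight tryptone soya agar culture adjusted to A600 0.1 (~1 × 10^8 CFU/mL) then diluted 1:100. Compounds tested as 2-fold series, 32 to 0.03 μg/mL, DMSO at most 2%; vancomycin as quality control.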

Series [5] relates to Staphylococcus aureus NCTC 13373 (mecA-positive; methicillin-resistant). The series is described as follows: In vitro antibacterial activity, MIC (UCL School of Pharmacy assay), MRSA. It is filed as cell-based. The note with it: for MIC: Staphylococcus aureus. In a few lines:
as §1

A further series in a line: LogD7.4 (Chrom Log D). It is filed as physicochemical. The text has this: To guide our initial SAR exploration work, we obtained liver microsomal intrinsic clearance data for 5 of the 18 compounds assayed by CO-ADD (Supporting Information - CDCO Report and Supporting Information - Biology). We then acquired intrinsic clearance (CLint), plasma protein binding (PPB), and solubility data on further compounds throughout the SAR campaign (Supporting Information - Biology, Tables S3 and S4). […] The more polar compounds (lower LogD) had reduced PPB and were more metabolically stable.
Table S4. ADME and Pharmacokinetics: compounds only appearing in the Supplementary […]
MRSA Aqueous HLM CLint Rat Hep CLint
Cmpd MIC Solubility Human PPB (%) (µL/min/mg (µL/min/10x6 LogD7.4
(µg/mL) (µM) protein) cells)
(§2) ADME and toxicity for compounds were measured according to procedures outlined in the manuscript submitted in parallel to this one;2 other procedures were used for those compounds analysed by Monash University (in vitro ADME) or UCL (toxicity), both described in the main

Series [6] deals with MRC-5SV2 (human lung fibroblast cell line). The series can be described thus: Toxicity against MRC-5SV2. It is filed as cell-based. The method, then: as §2
For series [7], the system named is PMM (primary mouse macrophages). The series can be described thus: Toxicity against PMM. The series is classed as cell-based. The procedure: as §2
For series [8], the system named is Enterococcus faecalis ATCC 51299 (vanA-positive; vancomycin-resistant). The series is described as follows: In vitro antibacterial activity, MIC (UCL), VRE. The note with it: for MIC: read-out: VRE MIC. The series is classed as cell-based. The procedure, abridged: as §1
Another series relates to VSE. The series is described as follows: In vitro antibacterial activity, MIC, VSE. The series is classed as cell-based.
Where [9] appears, read: human plasma, NEU, read-out: Human PPB (NEU) (converted).
Setting [10] is: chromatographic system (Chrom Log D), pH 7.4, NEU, read-out: LogD 7.4 (NEU).
Setting [11] is: NEU, read-out: Aqueous Solubility (uM) (NEU).
Setting [12] is: human plasma, NEU, read-out: Human PPB (%) (NEU) (converted).
The mark [13] stands for this setting: rat hepatocytes, NEU, read-out: Rat Hep CLint (uL/min/10x6 cells) (NEU).
[14] abbreviates: UCL assay, read-out: MSSA MIC (ug/mL) (UCL).
Where [15] appears, read: UCL assay, read-out: MRSA MIC (ug/mL) (UCL).
Setting [16] is: human liver microsomes, NEU, read-out: HLM CLint (uL/min/mg protein) (NEU).
Setting [17] is: human, liver microsomes, read-out: HLM CLint.
The mark [18] stands for this setting: rat, hepatocytes, Figure 4, read-out: Rat Hep CLint.
Setting [19] is: read-out: Human PPB (converted).

Consider `CCN(CC)c1ccc(-c2c(-c3ccccn3)nc3ccccn23)cc1` [OSA_001011], for which the solubility (commonly how much of the substance goes into solution per volume) in the series “Aqueous solubility” (NEU, read-out: Aqueous Solubility (NEU)) was 38 µM (≈ 13 µg/mL). Moreover, the fraction unbound in [1] (setting [9]) was 0.004. Further, in series [2] (human liver microsomes, NEU, read-out: HLM CLint (NEU)), the microsomal CLint was 159 µL/min/mg. For the same compound, the hepatocyte CLint in series [3] (rat hepatocytes, NEU, read-out: Rat Hep CLint (NEU)) is 192 µL/min/1e6 cells. The MIC in series [4] (read-out: MSSA MIC (UCL)) was 4 µg/mL (≈ 11.7 µM); in series [5] (UCL, read-out: MRSA MIC (UCL)), 4 µg/mL (≈ 11.7 µM). Further, the chromatographic logD in “LogD7.4 (Chrom Log D)” (setting [10]) came out at 4.3.

As to `Cc1ccc(-c2c(-c3ccccn3)nc3ccccn23)cc1` [OSA_001018], in “Aqueous solubility” (NEU), the “Aqueous Solubility (NEU)” value was 43 µM. In series [1] (setting [9]), the fraction unbound was 0.011. In addition, the “HLM CLint (NEU)” value in [2] (human liver microsomes, NEU) was 122 uL/min/mg protein. Besides, in series [3] (rat hepatocytes, NEU), the “Rat Hep CLint (NEU)” value is given as 57.7 uL/min/10x6 cells. Further, the MIC was found to be 4 µg/mL (≈ 14 µM) in series [4] (read-out: MSSA MIC (UCL)) and 4 µg/mL (≈ 14 µM) in series [5] (UCL, read-out: MRSA MIC (UCL)). Further, the chromatographic logD in “LogD7.4 (Chrom Log D)” (setting [10]) was found to be 3.3.

For `CS(=O)(=O)c1ccc2nc(-c3ccccn3)c(Nc3ccc(F)cc3)n2c1` [OSA_001020], in “Aqueous solubility” (setting [11]), the solubility was found to be 5 µM (≈ 1.91 µg/mL). Besides, the fraction unbound in series [1] (setting [12]) was 0.11. For the same compound, the “HLM CLint (uL/min/mg protein) (NEU)” value in series [2] (human liver microsomes, NEU) came out at 92 uL/min/mg protein. Further, the hepatocyte CLint in [3] (setting [13]) was more than 300 µL/min/1e6 cells. Further, in [6] (MRC5 cells), the “MRC5 TC50” value was 64 µM. Moreover, the MIC in [4] (setting [14]) and in series [5] (setting [15]) was more than 32 µg/mL each time. Moreover, in the series “LogD7.4 (Chrom Log D)” (setting [10]), the chromatographic logD is 2.4. Besides, in [7] (PMM), the “PMM TC50” value worked out at 32 µM.

Take `CC(C)CN(c1ccc(F)cc1)c1c(-c2ccccn2)nc2cc(F)ccn12` [OSA_001023]: the solubility in the series “Aqueous solubility” (setting [11]) is 11 µM (≈ 4.16 µg/mL). Also, the fraction unbound in series [1] (setting [12]) was 0.0023. Moreover, the microsomal CLint in series [2] (setting [16]) was 13.6 µL/min/mg. For the same compound, the hepatocyte CLint in [3] (setting [13]) was found to be 110 µL/min/1e6 cells. Besides, the MIC in series [4] (setting [14]) stood at 4 µg/mL (≈ 10.6 µM); in [5] (setting [15]), 8 µg/mL (≈ 21.1 µM). Also, the chromatographic logD in the series “LogD7.4 (Chrom Log D)” (setting [10]) worked out at 4.3.

In the case of `CC(C)CN(c1ccc(F)cc1)c1c(-c2ccccn2)nc2ccc(F)cn12` [OSA_001024], the solubility in the series “Aqueous solubility” (setting [11]) stood at 17 µM (≈ 6.43 µg/mL). Besides, the fraction unbound in series [1] (setting [12]) is 0.0014. The microsomal CLint in series [2] (setting [16]) worked out at 51.2 µL/min/mg. For the same compound, in series [3] (setting [13]), the hepatocyte CLint was 117 µL/min/1e6 cells. For the same compound, the MIC in [4] (setting [14]) and in [5] (setting [15]) was 8 µg/mL (≈ 21.1 µM) each time. The chromatographic logD in “LogD7.4 (Chrom Log D)” (setting [10]) was more than 4.2.

Turning to `COc1cccc(-c2nc3ccccn3c2N(CC(C)C)c2ccc(F)cc2)n1` [OSA_001025], the solubility in “Aqueous solubility” (setting [11]) came out at 0.7 µM (≈ 0.273 µg/mL). Besides, the fraction unbound in series [1] (setting [12]) is less than 0.01. Moreover, the microsomal CLint in [2] (setting [16]) was found to be 86.8 µL/min/mg. Moreover, the MIC in [4] (setting [14]) and in [5] (setting [15]) was more than 32 µg/mL each time. The chromatographic logD in “LogD7.4 (Chrom Log D)” (setting [10]) is more than 3.7.

Turning to `Fc1ccc(-c2c(-c3ccccn3)nc3ccccn23)cc1` [compound 859], the solubility in the series “Aqueous solubility” (read-out: Aqueous Solubility) is 178 µM (≈ 51.5 µg/mL). Also, the MIC in series [8] is more than 32 µg/mL; in series [5] (16 h, read-out: MRSA MIC), more than 32 µg/mL; in [5] (read-out: MRSA MIC), 32 µg/mL (≈ 111 µM). In series [2] (setting [17]), the microsomal CLint was 168 µL/min/mg. In addition, the hepatocyte CLint in series [3] (setting [18]) came to 49.8 µL/min/1e6 cells. In addition, the “MRC5 TC50” value in series [6] was 3.0 µg/mL. Moreover, the “activity against MRSA, in words” value in series [5] was “inactive”. For the same compound, the chromatographic logD in “LogD7.4 (Chrom Log D)” (pH 7.4, read-out: LogD7.4) was 3. Also, the “PMM TC50” value in series [7] came to 9.3 µg/mL.

Regarding `Cc1ccc(-c2c(-c3ccccn3)nc3cc(Cl)ccn23)cc1` [compound 978], the solubility in “Aqueous solubility” (read-out: Aqueous Solubility) was 5 µM (≈ 1.6 µg/mL). Further, the MIC in series [8] worked out at 8 µg/mL (≈ 25 µM); in [5] (16 h, read-out: MRSA MIC), 4 µg/mL (≈ 12.5 µM); in series [5] (read-out: MRSA MIC) it was 4 µg/mL (≈ 12.5 µM). In addition, the fraction unbound in [1] (setting [19]) is 0.01. Moreover, the microsomal CLint in [2] (setting [17]) came out at 65.6 µL/min/mg. The hepatocyte CLint in series [3] (setting [18]) is 104 µL/min/1e6 cells. The chromatographic logD in “LogD7.4 (Chrom Log D)” (pH 7.4, read-out: LogD7.4) came out at 3.1.

As for `N#CCc1ccc(-n2c(-c3ccccn3)nc3ccccc32)cc1` [compound 996], the “VRE MIC” value in [8] was more than 32 µg/mL. Further, the “VSE MIC” value in the series on VSE is more than 32 µg/mL. The “MRC5 TC50” value in series [6] was 19.9 µg/mL. Also, in series [4], the “MSSA MIC” value was found to be 32 µg/mL. In series [5], the “MRSA MIC” value is > 32 µg/mL and 32 µg/mL. Moreover, the “PMM TC50” value in series [7] was found to be 19.9 µg/mL.

In the case of `Cc1ccc(-c2c(-c3ccccn3)nc3ccccn23)cc1` [compound 1018], the solubility in “Aqueous solubility” (read-out: Aqueous Solubility) amounted to 43 µM (≈ 12.3 µg/mL). Besides, the fraction unbound in series [1] (setting [19]) is 0.01. Moreover, the microsomal CLint in [2] (setting [17]) turned out to be 122 µL/min/mg. The hepatocyte CLint in [3] (setting [18]) was 57.7 µL/min/1e6 cells. Besides, the MIC is 4 µg/mL (≈ 14 µM) in series [4] (read-out: MSSA MIC); 4 µg/mL (≈ 14 µM) in series [5] (16 h, read-out: MRSA MIC); 4 µg/mL (≈ 14 µM) in [5] (read-out: MRSA MIC). Further, the chromatographic logD in the series “LogD7.4 (Chrom Log D)” (pH 7.4, read-out: LogD7.4) was 3.3.
